Data published in patent US20260265265A1, “NOVEL BENZIMIDAZOLONE DERIVATIVE COMPOUND AS AUTOTAXIN INHIBITOR” (LG CHEM, LTD., priority 2023, published 2026).

Each compound was assayed against T1, Recombinant Human ENPP-2/Autotaxin (Homo sapiens, UniProt Q13822) (assay: LysoPLD activity measurement (autotaxin enzyme inhibition, choline release, TOOS reagent)). Conditions: LysoPLD inhibitory activity; substrate 14:0 LysoPC; absorbance at 555 nm.
T1 construct: purchased R&D systems 5255-EN
Type: biochemical
How it was run: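 Autotaxin lysoPLD activity was read as choline released from 14:0 LysoPC, detected by TOOS reagent absorbance. Compound was preincubated 30 min, then substrate diluted to 300 μM was added and the reaction ran 90 minutes at 37° C. Controls contained 1% DMSO.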
`O=C(O)c1cccc(C2(n3c(=O)n(-c4ccc(C(=O)N5CC6(CCOCC6)C5)cc4)c4cc(Cl)ccc43)CC2)c1F` [Example 107, 3-(1-(3-(4-(7-oxa-2-azaspiro[3.5]nonane-2-carbonyl)phenyl)-5-chloro-2-oxo-2,3-dihydro-1H-benzo[d]imidazol-1-yl)cyclopropyl)-2-fluorobenzoic acid] gave an IC50 of less than 10 nM. Compound `O=C(O)c1cccc(Cn2c(=O)n(-c3ccc(C4CCOCC4)cc3)c3cc(Cl)ccc32)c1F` [Example 108, 3-((5-chloro-2-oxo-3-(4-(tetrahydro-2H-pyran-4-yl)phenyl)-2,3-dihydro-1H-benzo[d]imidazol-1-yl)methyl)-2-fluorobenzoic acid] has an IC50 of 10 to 100 nM. `O=C(O)c1cccc(Cn2c(=O)n(-c3ccc(C4=CCCCC4)cc3)c3cc(Cl)ccc32)c1` [Example 109, 3-((5-chloro-2-oxo-3-(2′,3′,4′,5′-tetrahydro-[1,1′-biphenyl]-4-yl)-2,3-dihydro-1H-benzo[d]imidazol-1-yl)methyl)benzoic acid] showed an IC50 of 100 to 1000 nM. `O=C(O)c1cccc(Cn2c(=O)n(-c3ccc(C4=CCOC4)cc3)c3cc(Cl)ccc32)c1F` [Example 110, 3-((5-chloro-3-(4-(2,5-dihydrofuran-3-yl)phenyl)-2-oxo-2,3-dihydro-1H-benzo[d]imidazol-1-yl)methyl)-2-fluorobenzoic acid] was tested, and the IC50 was 10 to 100 nM. `CC1CC=C(c2ccc(-n3c(=O)n(Cc4cccc(C(=O)O)c4F)c4ccc(Cl)cc43)cc2)CC1` (stereo not drawn) [Example 111, 3-((5-chloro-3-(4′-methyl-2′,3′,4′,5′-tetrahydro-′[1,1′-biphenyl]-4-yl)-2-oxo-2,3-dihydro-1H-benzo[d]imidazol-1-yl)methyl)-2-fluorobenzoic acid] showed an IC50 of 100 to 1000 nM. `CC1(C)CC=C(c2ccc(-n3c(=O)n(Cc4cccc(C(=O)O)c4F)c4ccc(Cl)cc43)cc2)CC1` [Example 112, 3-((5-chloro-3-(4′,4′-dimethyl-2′,3′,4′,5′-tetrahydro-[1,1′-biphenyl]-4-yl)-2-oxo-2,3-dihydro-1H-benzo[d]imidazol-1-yl)methyl)-2-fluorobenzoic acid] gave an IC50 of 100 to 1000 nM. `CN(C)C(=O)c1ccc(-n2c(=O)n(CCc3cccc(C(=O)O)c3)c3ccc(Cl)cc32)cc1` [Example 113, 3-(2-(5-chloro-3-(4-(dimethylcarbamoyl)phenyl)-2-oxo-2,3-dihydro-1H-benzo[d]imidazol-1-yl)ethyl)benzoic acid] showed an IC50 of 100 to 1000 nM. In the case of `CC1(C)Cc2cc(-n3c(=O)n(Cc4cccc(C(=O)O)c4)c4ccc(Cl)cc43)ccc2C1=O` [Example 115, 3-((5-chloro-3-(2,2-dimethyl-1-oxo-2,3-dihydro-1H-inden-5-yl)-2-oxo-2,3-dihydro-1H-benzo[d]imidazol-1-yl)methyl)benzoic acid], the IC50 is reported as 100 to 1000 nM. `CN1Cc2cc(-n3c(=O)n(Cc4cccc(C(=O)O)c4)c4ccc(Cl)cc43)ccc2C1=O` [Example 116, 3-((5-chloro-3-(2-methyl-1-oxoisoindolin-5-yl)-2-oxo-2,3-dihydro-1H-benzo[d]imidazol-1-yl)methyl)benzoic acid] gave an IC50 of 100 to 1000 nM. `CN1Cc2cc(-n3c(=O)n(Cc4cccc(C(=O)O)c4F)c4ccc(Cl)cc43)ccc2C1=O` [Example 117, 3-((5-chloro-3-(2-methyl-1-oxoisoindolin-5-yl)-2-oxo-2,3-dihydro-1H-benzo[d]imidazol-1-yl)methyl)-2-fluorobenzoic acid] was tested, and the IC50 was 10 to 100 nM. With `O=C(O)c1cccc(Cn2c(=O)n(-c3ccc(N4CCC(F)(F)CC4)cc3)c3cc(Cl)ccc32)c1F` [Example 118, 3-((5-chloro-3-(4-(4,4-difluoropiperidin-1-yl)phenyl)-2-oxo-2,3-dihydro-1H-benzo[d]imidazol-1-yl)methyl)-2-fluorobenzoic acid] the IC50 was 10 to 100 nM. With `O=C(O)c1cccc(Cn2c(=O)n(-c3ccc(N4CCC(F)(F)C4)cc3)c3c(F)c(Cl)ccc32)c1F` [Example 119, 3-((5-chloro-3-(4-(3,3-difluoropyrrolidin-1-yl)phenyl)-4-fluoro-2-oxo-2,3-dihydro-1H-benzo[d]imidazol-1-yl)methyl)-2-fluorobenzoic acid] the IC50 was 10 to 100 nM.
